Reference: the supplement of paper PMC6045584
± gives the standard deviation of the averaged measurements.

What was measured:
NUTLIN3 [1] = compound: T1, COc1ccc(C2=N[C@@H](c3ccc(Cl)cc3)[C@@H](c3ccc(Cl)cc3)N2C(=O)N2CCNC(=O)C2)c(OC(C)C)c1 [NUTLIN3]; experiment: surviving fraction relative to DMSO-only wells; higher = less growth inhibition; settings: exposure time: 5 days
Procedure, shortened: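 At 250–500 cells per well in 384-well plates, log-phase tumour cell lines were seeded and, 24 hours on, exposed continuously for five days to inhibitors at 0.5, 1, 5, 10, 50, 100, 500 and 1000 nM. Viability readout was CellTiter-Glo luminescence, reported as surviving fraction normalised to the median of DMSO-only wells.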

17-AAG = compound: C=CCNC1=C2C[C@@H](C)C[C@H](OC)[C@H](O)[C@@H](C)/C=C(\C)[C@H](OC(N)=O)[C@@H](OC)/C=C\C=C(/C)C(=O)NC(=CC1=O)C2=O [17-AAG]; experiment: area under dose-response curve of surviving fraction (unscaled, Aref=0) (surviving fraction x log10(nM)); higher = more resistant; settings: exposure time: 5 days; dose range 0.5-1000 nM
Procedure, shortened: (§1)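 Tumour cell lines in 384-well plates were exposed for five days to eight inhibitor concentrations from 0.5 to 1000 nM. Viability was read by CellTiter-Glo luminescence, normalised to DMSO-only wells, in three screens per line. Dose-response survival curves were fitted to surviving fractions by 3-parameter logistic regression in the drc R package. Area under the curve is the unscaled activity area (Aref = 0) over log10 dose.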

[2] = compound: CCN(CC)CCCCNc1ncc2cc(-c3cc(OC)cc(OC)c3)c(NC(=O)NC(C)(C)C)nc2n1; experiment: as above; settings: exposure time: 5 days; dose range 0.5-1000 nM
Procedure, shortened: as §1

SALINOMYCIN = compound: CC[C@@H](C(=O)[C@@H](C)[C@@H](O)[C@H](C)[C@@H]1O[C@@H]([C@@H](CC)C(=O)O)CC[C@@H]1C)[C@H]1O[C@]2(C=C[C@@H](O)[C@]3(CC[C@@](C)([C@H]4CC[C@](O)(CC)[C@H](C)O4)O3)O2)[C@H](C)C[C@@H]1C [SALINOMYCIN]; experiment: as above; settings: exposure time: 5 days; dose range 0.5-1000 nM
Procedure, shortened: as §1

NUTLIN3 [3] = compound: T1, NUTLIN3; experiment: as above; settings: exposure time: 5 days; dose range 0.5-1000 nM
Procedure, shortened: as §1

DOXORUBICIN = compound: COc1cccc2c1C(=O)c1c(O)c3c(c(O)c1C2=O)C[C@@](O)(C(=O)CO)C[C@@H]3O[C@H]1C[C@H](N)[C@H](O)[C@H](C)O1 [DOXORUBICIN]; experiment: as above; settings: exposure time: 5 days; dose range 0.5-1000 nM
Procedure, shortened: as §1

VISMODEGIB = compound: CS(=O)(=O)c1ccc(C(=O)Nc2ccc(Cl)c(-c3ccccn3)c2)c(Cl)c1 [VISMODEGIB]; experiment: as above; settings: exposure time: 5 days; dose range 0.5-1000 nM
Procedure, shortened: as §1

FLAVOPIRIDOL = compound: CN1CC[C@H](c2c(O)cc(O)c3c(=O)cc(-c4ccccc4Cl)oc23)[C@H](O)C1 [FLAVOPIRIDOL]; experiment: as above; settings: exposure time: 5 days; dose range 0.5-1000 nM
Procedure, shortened: as §1

2-METHOXYESTRADIOL = compound: COc1cc2c(cc1O)CC[C@@H]1[C@@H]2CC[C@]2(C)[C@@H](O)CC[C@@H]12 [2-METHOXYESTRADIOL]; experiment: as above; settings: exposure time: 5 days; dose range 0.5-1000 nM
Procedure, shortened: as §1

FLUOROURACIL = compound: O=c1[nH]cc(F)c(=O)[nH]1 [FLUOROURACIL]; experiment: as above; settings: exposure time: 5 days; dose range 0.5-1000 nM
Procedure, shortened: as §1

RESVERATROL = compound: Oc1ccc(/C=C/c2cc(O)cc(O)c2)cc1 [RESVERATROL]; experiment: as above; settings: exposure time: 5 days; dose range 0.5-1000 nM
Procedure, shortened: as §1

ABT-737 = compound: CN(C)CC[C@H](CSc1ccccc1)Nc1ccc(S(=O)(=O)NC(=O)c2ccc(N3CCN(Cc4ccccc4-c4ccc(Cl)cc4)CC3)cc2)cc1[N+](=O)[O-] [ABT-737]; experiment: as above; settings: exposure time: 5 days; dose range 0.5-1000 nM
Procedure, shortened: as §1

DECITABINE = compound: Nc1ncn([C@H]2C[C@H](O)[C@@H](CO)O2)c(=O)n1 [DECITABINE]; experiment: as above; settings: exposure time: 5 days; dose range 0.5-1000 nM
Procedure, shortened: as §1

Test System	surviving fraction (NUTLIN3 [1]; 0.5 nM)	surviving fraction (NUTLIN3 [1]; 1 nM)	surviving fraction (NUTLIN3 [1]; 5 nM)	surviving fraction (NUTLIN3 [1]; 10 nM)	surviving fraction (NUTLIN3 [1]; 50 nM)	surviving fraction (NUTLIN3 [1]; 100 nM)	surviving fraction (NUTLIN3 [1]; 500 nM)	surviving fraction (NUTLIN3 [1]; 1000 nM)	area under dose-response curve (17-AAG)	area under dose-response curve [2]	area under dose-response curve (SALINOMYCIN)	area under dose-response curve (NUTLIN3 [3])	area under dose-response curve (DOXORUBICIN)	area under dose-response curve (VISMODEGIB)	area under dose-response curve (FLAVOPIRIDOL)	area under dose-response curve (2-METHOXYESTRADIOL)	area under dose-response curve (FLUOROURACIL)	area under dose-response curve (RESVERATROL)	area under dose-response curve (ABT-737)	area under dose-response curve (DECITABINE)
HCC202 BREAST	1.1 ± 0.15	1.07 ± 0.14	1.14 ± 0.14	1.15 ± 0.17	1.2 ± 0.12	1.27 ± 0.13	1.23 ± 0.16	1.23 ± 0.21	1.59	4.1	2.48	3.88	2.27	3.06						
HUO3N1 BONE	1.07 ± 0.046	0.988 ± 0.032	1.039 ± 0.0087	1 ± 0.034	1.09 ± 0.032	1.03 ± 0.032	1.01 ± 0.068	1.04 ± 0.033	2.3	3.05	2.41	3.41	2		2.49	3.2	3.28	3.49		
JURKAT HAEMATOPOIETIC AND LYMPHOID TISSUE	1.11 ± 0.031	1.1 ± 0.015	1.07 ± 0.015	1.06 ± 0.017	1.05 ± 0.078	1.03 ± 0.012	1.02 ± 0.022	1.03 ± 0.013	2.65	3.44	2.52	3.49	1.12		2.12	2.65		3.34	3.08	1.56
LNCAP PROSTATE	1.03 ± 0.034	1.01 ± 0.078	0.955 ± 0.065	1 ± 0.086	0.956 ± 0.073	0.803 ± 0.089	0.491 ± 0.12	0.289 ± 0.011	1.33	2.96	1.9	2.82	1.09		1.78	2.89		3.05	3.07	2.75
MDAMB157 BREAST	0.957 ± 0.071	0.961 ± 0.093	0.97 ± 0.11	0.913 ± 0.12	1.02 ± 0.075	1 ± 0.039	0.999 ± 0.051	1.04 ± 0.074	1.61	2.73	2.66	3.22	1.21	3.26	2.21	3.1		3.39	3.26	2.4
NCIH441 LUNG	1.04 ± 0.092	1.04 ± 0.028	1.01 ± 0.058	1.05 ± 0.051	1.07 ± 0.095	1.08 ± 0.1	1.2 ± 0.06	1.14 ± 0.065	2.37	3.37	3.12	3.56	2.15	3.27	2.48	3.22		3.72		2.57
NOS1 BONE	1.14 ± 0.072	0.978 ± 0.1	1.142 ± 0.0078	1.17 ± 0.16	1.14 ± 0.071	1.15 ± 0.1	1.08 ± 0.042	1.08 ± 0.04	1.6	3.02	2.83	3.66	2.15		2.06			3.77	3.75	3.34
